Test results from ChEMBL document CHEMBL6103619, “Discovery of a Novel CRBN-Recruiting cGAS PROTAC Degrader for the Treatment of Ulcerative Colitis” (J Med Chem, 2025).
Calls of active or inactive are those of the source. The rule behind the calls is not given here.

Key:
[1] = molecular target: T1, Protein cereblon/Cyclic GMP-AMP synthase (Mus musculus) (UniProt Q8C6L5+Q8C7D2); assay: (§1) In vivo inhibition of cGAS signaling pathway in DSS-induced ulcerative colitis C57BL/6 mouse model assessed as reduction in cGAS protein level in colon at 50 mg/kg/day, ip preadministered with DSS for 7 days followed by replacement with ultrapure water for 3 days with subsequent compound administration starting from day 4 to 10 and measured on day 11 by Western blot analysis; type: functional, organism-based; conditions: time 8.0 day
T1 sequence (Q8C6L5 whole entry, looked up): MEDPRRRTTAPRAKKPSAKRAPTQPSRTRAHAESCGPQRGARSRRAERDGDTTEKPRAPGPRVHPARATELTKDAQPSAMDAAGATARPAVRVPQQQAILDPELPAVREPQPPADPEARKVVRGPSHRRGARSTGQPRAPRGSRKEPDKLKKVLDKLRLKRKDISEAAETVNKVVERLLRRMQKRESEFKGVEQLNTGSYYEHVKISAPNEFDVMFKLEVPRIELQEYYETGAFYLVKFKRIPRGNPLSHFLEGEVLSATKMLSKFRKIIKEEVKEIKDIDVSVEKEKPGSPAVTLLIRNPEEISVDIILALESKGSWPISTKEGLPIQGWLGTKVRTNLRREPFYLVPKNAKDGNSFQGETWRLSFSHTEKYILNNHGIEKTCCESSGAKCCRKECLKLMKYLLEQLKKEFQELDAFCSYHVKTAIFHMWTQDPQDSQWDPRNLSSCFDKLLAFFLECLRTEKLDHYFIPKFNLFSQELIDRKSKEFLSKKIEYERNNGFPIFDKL
T1 sequence (Q8C7D2 whole entry, looked up): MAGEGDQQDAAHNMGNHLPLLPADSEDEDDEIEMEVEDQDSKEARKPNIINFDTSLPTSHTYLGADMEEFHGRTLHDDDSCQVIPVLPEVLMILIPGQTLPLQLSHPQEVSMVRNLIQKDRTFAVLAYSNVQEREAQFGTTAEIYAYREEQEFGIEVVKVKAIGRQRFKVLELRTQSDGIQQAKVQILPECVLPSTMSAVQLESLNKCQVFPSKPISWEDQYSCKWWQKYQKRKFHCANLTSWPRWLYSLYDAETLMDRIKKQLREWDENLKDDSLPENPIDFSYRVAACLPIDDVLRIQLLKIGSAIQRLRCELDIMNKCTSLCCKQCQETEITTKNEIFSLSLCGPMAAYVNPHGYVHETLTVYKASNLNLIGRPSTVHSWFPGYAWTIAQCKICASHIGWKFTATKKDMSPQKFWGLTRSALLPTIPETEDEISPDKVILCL

[2] = Inhibition of dsDNA-induced cGAS signaling pathway in human THP1-Lucia ISG cells preincubated with compound for 24 hrs followed by HT-DNA addition and measured after 24 hrs by QUANTI-Luc luciferase reagent based assay; type: cell-based
[3] = tested on: Mus musculus; assay: as §1, with “Anti-inflammatory activity” for “In vivo inhibition of cGAS signaling pathway”, “NET generation by measuring reduction in citH3” for “cGAS protein”; type: functional, organism-based; conditions: time 8.0 day
[4] = tested on: THP-1; assay: Cytotoxicity against human THP-1 cells assessed as reduction in cell viability at >30 uM incubated for 48 hrs by CCK8 assay; type: toxicity, cell-based; conditions: thp-1, 48 h
[5] = molecular target: Protein cereblon/Cyclic GMP-AMP synthase (Homo sapiens, UniProt Q96SW2+Q8N884); assay: PROTAC activity at CRBN/cGAS in human THP-1 cells assessed as induction of cGAS degradation at 10 uM incubated for 48 hrs by Western blot analysis; type: cell-based
Chain of Protein cereblon/Cyclic GMP-AMP synthase (Q8N884 whole entry, looked up): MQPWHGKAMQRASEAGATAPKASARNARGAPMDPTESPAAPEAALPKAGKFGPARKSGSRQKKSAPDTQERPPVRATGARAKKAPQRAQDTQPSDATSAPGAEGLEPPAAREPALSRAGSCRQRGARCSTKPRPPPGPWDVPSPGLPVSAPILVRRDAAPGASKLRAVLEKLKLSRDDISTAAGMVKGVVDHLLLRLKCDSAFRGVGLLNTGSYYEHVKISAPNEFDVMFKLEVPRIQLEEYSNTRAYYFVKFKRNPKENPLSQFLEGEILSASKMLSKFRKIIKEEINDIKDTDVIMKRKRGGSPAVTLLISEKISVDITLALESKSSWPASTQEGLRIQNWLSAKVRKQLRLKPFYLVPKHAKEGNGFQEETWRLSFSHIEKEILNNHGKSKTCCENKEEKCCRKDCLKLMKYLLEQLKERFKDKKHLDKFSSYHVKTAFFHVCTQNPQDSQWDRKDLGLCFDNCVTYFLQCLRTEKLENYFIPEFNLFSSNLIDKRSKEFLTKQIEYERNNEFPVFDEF
Chain of Protein cereblon/Cyclic GMP-AMP synthase (Q96SW2 whole entry, looked up): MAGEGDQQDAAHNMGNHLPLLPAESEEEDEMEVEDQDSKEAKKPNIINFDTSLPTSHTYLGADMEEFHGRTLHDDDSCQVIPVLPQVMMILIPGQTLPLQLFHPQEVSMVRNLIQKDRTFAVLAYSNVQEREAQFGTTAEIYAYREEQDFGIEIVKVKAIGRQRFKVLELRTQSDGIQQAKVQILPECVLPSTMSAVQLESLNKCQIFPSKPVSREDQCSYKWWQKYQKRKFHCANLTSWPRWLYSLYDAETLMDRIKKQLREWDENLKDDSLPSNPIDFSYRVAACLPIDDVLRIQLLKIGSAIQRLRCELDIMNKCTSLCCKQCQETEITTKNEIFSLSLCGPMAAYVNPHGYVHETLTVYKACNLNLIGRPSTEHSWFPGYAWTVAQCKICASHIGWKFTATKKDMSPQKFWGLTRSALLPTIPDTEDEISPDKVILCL

[6] = tested on: THP-1; assay: Induction of cGAS degradation in human THP-1 cells at 10 uM preincubated with compound for 40 hrs followed by HT-DNA stimulation and measured after 8 hrs by Western blot analysis relative to control; type: cell-based; conditions: time 48.0 hrs
[7] = Inhibition of dsDNA-induced cGAS signaling pathway in mouse RAW-Lucia ISG cells preincubated with compound for 24 hrs followed by HT-DNA addition and measured after 24 hrs by QUANTI-Luc luciferase reagent based assay; type: cell-based
[8] = tested on: Mus musculus; assay: as §1, with “Anti-inflammatory activity” for “In vivo inhibition of cGAS signaling pathway”, “NET generation by measuring reduction in citH3” for “cGAS protein”, “200” for “50”, “po” for “ip”; type: functional, organism-based; conditions: time 8.0 day
[9] = molecular target: T1, Protein cereblon/Cyclic GMP-AMP synthase (Mus musculus); assay: as §1, with “200” for “50”, “po” for “ip”; type: functional, organism-based; conditions: time 8.0 day

| Compound | inhibition [1] | IC50 [2] [µM] | Activity [3] | Activity [4] | Activity [5] | Activity [6] [%] | IC50 [7] [µM] | Activity [8] | inhibition [9] |
| --- | --- | --- | --- | --- | --- | --- | --- | --- | --- |
| Cn1ccc(-c2cc(Cl)c(Cl)c3[nH]c4c(c23)CN(C(=O)CO)CC4)n1 | Active; Minor Changes Observed | 4.1 | Active | Toxic | inactive | 8.3 | 13.1 | – | – |
| Nc1ccc(O)c(C(=O)O)c1 | – | – | – | – | – | – | – | Active | Active; Minor Changes Observed |
